Test results published in BigSolDB 2.1.

CC1(C)COP(=O)(Oc2cc(OP3(=O)OCC(C)(C)CO3)cc(OP3(=O)OCC(C)(C)CO3)c2)OC1
solubility (mole fraction)
Conditions | in 1,4-dioxane | in THF | in acetone | in acetonitrile | in chloroform | in dichloromethane | in ethanol | in methanol
288.15 K | 8.73e-05 | 0.000132 | 0.000453 | 0.000941 | 0.00551 | 0.00512 | 7.83e-05 | 0.000423
293.15 K | 9.57e-05 | 0.000138 | 0.000502 | 0.00109 | 0.00634 | 0.00589 | 9.43e-05 | 0.000496
298.15 K | 0.00011 | 0.000144 | 0.000568 | 0.00136 | 0.00713 | 0.00673 | 0.000111 | 0.000568
303.15 K | 0.000127 | 0.000149 | 0.000638 | 0.00158 | 0.00802 | 0.00779 | 0.00013 | 0.000648
308.15 K | 0.000139 | 0.000154 | 0.000718 | 0.00195 | 0.00921 | 0.00891 | 0.000156 | 0.000748
313.15 K | 0.000153 | 0.000158 | 0.000805 | 0.00238 | 0.0106 | – | 0.000192 | 0.000874
318.15 K | 0.000171 | 0.000162 | 0.000924 | 0.00289 | 0.0121 | – | 0.000225 | 0.000975
